Test [1] deals with COX-2 in 184B5/HER cells. Put plainly: Amounts of COX-2 in 184B5/HER cells after treatment with MAP kinase inhibitors. The test is classed as cell-based, human. From the text: The cells used were 184B5 and 184B5/HER cell lines. They were obtained from a collaborator. The 184B5 cell line is an immortalized but nontumorogenic human breast epithelial cell line that was established from a reduction mammoplasty and is described in Stampfer, M. R., et al., Proc. Natl. Acad. Sci. USA 82, 2394-2398 (1985). The 184B5/HER cell line was derived by stably transfecting 184B5 cells with a mutationally activated human HER-2/neu oncogene; these cells form rapidly growing tumors when injected into athymic nude mice. The 184B5/HER cell line is described in Pierce, J. H., et al., Oncogene 6, 1189-1194(1991). Cells were maintained in MEM (from Life Technologies, Inc. of Grand Island, N.Y.)—KBM, i.e., kerotinocyte basal medium (from Clonetics Corp. of San Diego, Calif.), mixed in a ratio of 1:1. […]
Western blotting was carried out to determine whether the differences in PGE2 production were related to differences in amounts of COX enzymes. […] The protein concentration of the supernatant was measured as described in Lowry, O. H., et al., J. Biol. Chem. 193, 265-275 (1951). […]
The activity of p44/42 MAP kinase was measured using a nonradioactive method where the assay was performed with a p44/42 MAP kinase activity kit obtained from New England Biolabs (of Beverly, Mass.) using the manufacturer's instructions. […]

For test [2], the system named is HER-2/neu positive breast cancer. Put plainly: Adjuvant therapy of a patient with HER-2/neu positive breast cancer. The test is classed as in vivo, human. The method, then: A patient with HER-2/neu positive breast cancer is treated with Celebrex® for adjuvant therapy at an oral dose of 400 mg twice a day for five years after a mastectomy. […] The same result is obtained when the Celebrex® is replaced with an oral dose of 50 mg per day of Vioxx® for five years.
The patient also received an oral dose of 400 mg Celebrex® twice daily for one year or an oral dose of 50 mg Vioxx® daily for one year.

In test [3] the test system is HER-2/neu positive breast cancer that has metastasized. Put plainly: Treatment of a patient with metastasized HER-2/neu positive breast cancer. The test is classed as in vivo, human. Here is the method:
Breast cancer is determined to have metastasized to lung and liver three years after a mastectomy is performed on a patient with HER-2/neu positive breast cancer. The patient is treated with oral doses of Celebrex® of 400 mg twice a day or of Vioxx® of 50 mg per day.
After three months, the Celebrex® or Vioxx® was continued in combination regimen with Taxol® at a dose of 175 mg/m^2 administered intravenously every three weeks.
Breast cancer is determined to have metastasized to bone nine years after a mastectomy is performed on a patient with HER-2/neu positive breast cancer.
After 90 days, oral cyclophosphamide at a dose of 3 mg/kg/day and doxoribicin administered intravenously weekly at a dose of 20 mg/m^2, are added to the drug regimen.

The subject of test [4] is HER-2/neu positive colon cancer. Briefly: Treatment of a patient after resection of HER-2/neu positive colon cancer. It is filed as in vivo, human. Particulars: cancer localized to bowel wall, oral Celebrex 400 mg twice a day or Vioxx 50 mg per day for five years. The method, then:
A patient undergoes resection of colon cancer which proves to be HER-2/neu positive. The colon cancer is found to be localized to the bowel wall; there is no evidence of extracolonic cancer. The patient is treated with Celebrex® at oral dose of 400 mg twice a day for five years or an oral dose of Vioxx® at 50 mg per day for five years.

Setting [5] is: adjuvant therapy alone, oral, five years after a mastectomy (Celebrex 400 mg twice a day; Vioxx 50 mg per day).
Setting [6] is: adjuvant therapy with HERCEPTIN (250 mg IV loading, 10 weekly 125 mg IV), oral Celebrex 400 mg twice daily or Vioxx 50 mg daily for one year.
Where [7] appears, read: metastasized to bone, after failure of prior chemotherapy, oral Celebrex 400 mg twice a day or Vioxx 50 mg per day plus HERCEPTIN
Setting [8] is: metastasized to bone, after 90 days oral cyclophosphamide 3 mg/kg/day and weekly IV doxorubicin 20 mg/m^2 added to the COX-2 inhibitor plus HERCEPTIN regimen.
Setting [9] is: metastasized to lung and liver, after three months continued in combination with Taxol 175 mg/m^2 IV every three weeks.
Setting [10] is: metastasized to lung and liver, oral Celebrex 400 mg twice a day or Vioxx 50 mg per day alone.

The structures appear in SMILES notation.

As to `Oc1ccc(-c2nc(-c3ccc(F)cc3)c(-c3ccncc3)[nH]2)cc1` [SB 202190, 4-(4-fluorophenyl)-2-(4-hydroxyphenyl)-5-(4-pyridyl)-1H-imidazole], the “amounts of COX-2” value in test [1] is recorded as “down-regulated”.

As for `Cc1ccc(-c2cc(C(F)(F)F)nn2-c2ccc(S(N)(=O)=O)cc2)cc1` [Celebrex®, 4-[5-(4-Methylphenyl)-3-(trifluoromethyl)-1H-pyrazol-1-yl]benzenesulfonamide], the “Recurrence of breast cancer” value in test [2] (setting [5]) and in test [2] (setting [6]) was “does not occur” throughout. For the same compound, the tumor burden entry in test [3] (setting [7]) is listed as “reduced tumor burden”; in test [3] (setting [8]), “still further reduced tumor burden”; in test [3] (setting [9]), “further reduced tumor burden”; in test [3] (setting [10]), “reduced tumor burden”. Also, the “Recurrence of colon cancer” value in test [4] is given as “does not occur”.

Regarding `CS(=O)(=O)c1ccc(C2=C(c3ccccc3)C(=O)OC2)cc1` [Vioxx®, 3-(Phenyl)-4-(4-(methylsulfonyl)phenyl)-2-(5H)-furanone], the “Recurrence of breast cancer” value in test [2] (setting [5]) and in test [2] (setting [6]) was “does not occur” in each case. Also, the tumor burden result is “reduced tumor burden” in test [3] (setting [7]), “still further reduced tumor burden” in test [3] (setting [8]), “further reduced tumor burden” in test [3] (setting [9]) and “reduced tumor burden” in test [3] (setting [10]). Also, the “Recurrence of colon cancer” value in test [4] is “does not occur”.

Take `COc1cccc(-c2cc(=O)c3ccccc3o2)c1N` [PD 98059, 2′-amino-3′-methoxyflavone]: the “amounts of COX-2” value in test [1] is listed as “decrease”.

Source of the values: US6403630B1, “Treating cancers associated with overexpression of HER-2/neu” (Cornell Research Foundation, Inc., priority 1999, dated 2002).
